According to ChEMBL document CHEMBL1140776, “Parasiticidal 2-alkoxy- and 2-aryloxyiminoalkyl trifluoromethanesulfonanilides” (2008):

Columns and labels:
Format in all cases: functional
[1] = tested on: Ctenocephalides felis; experiment: Parasiticidal activity against Ctenocephalides felis assessed as mortality after 24 hrs by cat flea assay; set-up: concentration or dose not given beside the values
[2] = tested on: Rhipicephalus sanguineus; experiment: Parasiticidal activity against Rhipicephalus sanguineus assessed per tick by brown dog tick assay
[3] = tested on: Ctenocephalides felis; experiment: Parasiticidal activity against Ctenocephalides felis by cat flea assay
[4] = tested on: Rhipicephalus sanguineus; experiment: Parasiticidal activity against Rhipicephalus sanguineus assessed as mortality after 24 hrs by brown dog tick assay; set-up: concentration or dose not given beside the values
[5] = tested on: Haemonchus contortus; experiment: Parasiticidal activity against Haemonchus contortus by larval assay
[6] = tested on: Ctenocephalides felis; experiment: Parasiticidal activity against Ctenocephalides felis after 8 hrs by cat flea assay; set-up: concentration or dose not given beside the values
[7] = tested on: Rhipicephalus sanguineus; experiment: Parasiticidal activity against Rhipicephalus sanguineus assessed as mortality at 10 ug/tick by brown dog tick assay
[8] = tested on: Haemonchus contortus; experiment: Parasiticidal activity against avermectin-resistant Haemonchus contortus CAVR by larval assay
[9] = tested on: Haemonchus contortus; experiment: Parasiticidal activity against benzimidazole and levamisole-resistant Haemonchus contortus Lawes by larval assay
[10] = tested on: Trichostrongylus colubriformis; experiment: Parasiticidal activity against Trichostrongylus colubriformis
[11] = tested on: Teladorsagia circumcincta; experiment: Parasiticidal activity against Ostertagia circumcincta McMaster

C/C(=N\OCC(F)(F)F)c1cc(Cl)ccc1NS(=O)(=O)C(F)(F)F
Activity [1]: 100% | LD50 [2]: 0.94 µg | LC50 [3]: 6 ng/cm2 | Activity [4]: 82% | LD99 [5]: 18 µM

C#CCO/N=C(\C)c1cc(Cl)ccc1NS(=O)(=O)C(F)(F)F
Activity [1]: 100% | LD50 [2]: 0.99 µg | LC50 [3]: 11 ng/cm2 | Activity [4]: 100%

CC/C(=N\Oc1ccc(F)cc1)c1cc(Cl)ccc1NS(=O)(=O)C(F)(F)F
Activity [1]: 100% | LD50 [2]: 1.5 µg | LC50 [3]: 35 ng/cm2 | Activity [4]: 92% | LD99 [5]: 3.5 µM

CC/C(=N\OCc1ccc(C(C)(C)C)cc1)c1cc(Cl)ccc1NS(=O)(=O)C(F)(F)F
Activity [6]: 8% | LD99 [5]: 6.9 µM

CC(C)/C(=N\OCc1ccc(C(F)(F)F)cc1C(F)(F)F)c1cc(Cl)ccc1NS(=O)(=O)C(F)(F)F
Activity [6]: 10% | LD99 [5]: 1.5 µM

CC/C(=N\OCc1ccccc1C(F)(F)F)c1cc(Cl)ccc1NS(=O)(=O)C(F)(F)F
Activity [1]: 96% | LC50 [3]: 36 ng/cm2 | Activity [4]: 31% | LD99 [5]: 2.7 µM

CC/C(=N\OCc1ccc(F)cc1F)c1cc(Cl)ccc1NS(=O)(=O)C(F)(F)F
Activity [6]: 95% | LD99 [5]: 7.2 µM

CC(C)/C(=N\OCc1ccc(C(F)(F)F)cc1)c1cc(Cl)ccc1NS(=O)(=O)C(F)(F)F
Activity [6]: 12% | LD99 [5]: 2.6 µM

CCO/N=C(\C)c1cc(Cl)ccc1NS(=O)(=O)C(F)(F)F
Activity [1]: 100% | Activity [4]: 85% | LD99 [5]: >15 µM

O=S(=O)(Nc1ccc(Cl)cc1/C=N/OCc1ccc(C(F)(F)F)cc1C(F)(F)F)C(F)(F)F
Activity [6]: 10% | LD99 [5]: 0.59 µM

O=S(=O)(Nc1ccc(Cl)cc1/C(=N/OCc1ccc(C(F)(F)F)cc1C(F)(F)F)c1ccccc1)C(F)(F)F
Activity [6]: 21% | LD99 [5]: 3.1 µM

CC/C(=N\OC1CCCCC1)c1cc(Cl)ccc1NS(=O)(=O)C(F)(F)F
Activity [1]: 100% | LD50 [2]: 5.7 µg | Activity [4]: 100%

C/C(=N\OCC1CC1)c1cc(Cl)ccc1NS(=O)(=O)C(F)(F)F
Activity [1]: 100% | LD50 [2]: 1 µg | LC50 [3]: 5 ng/cm2 | Activity [4]: 100%

CC(C)/C(=N\Oc1ccc(Cl)cc1)c1cc(Cl)ccc1NS(=O)(=O)C(F)(F)F
Activity [1]: 100% | LD50 [2]: 1.7 µg | LC50 [3]: 71 ng/cm2 | Activity [4]: 65% | LD99 [5]: 11 µM

CC/C(=N\OCc1cccs1)c1cc(Cl)ccc1NS(=O)(=O)C(F)(F)F
Activity [1]: 100% | LD50 [2]: 2.5 µg | LC50 [3]: 7 ng/cm2 | Activity [4]: 70% | LD99 [5]: 35 µM

N#Cc1nn(-c2c(Cl)cc(C(F)(F)F)cc2Cl)c(N)c1[S+]([O-])C(F)(F)F (stereo unspecified) [FIPRONIL]
LC50 [3]: 0.1 ng/cm2

CC/C(=N\OCC1CCCCC1)c1cc(Cl)ccc1NS(=O)(=O)C(F)(F)F
Activity [1]: 100% | LD50 [2]: 3.4 µg | LC50 [3]: 29 ng/cm2 | Activity [4]: 100% | Activity [7]: 100% | LD99 [5]: 7 µM

C/C(=N\OCc1ccc(Cl)cc1)c1cc(Cl)ccc1NS(=O)(=O)C(F)(F)F
Activity [1]: 100% | Activity [4]: 72% | LD99 [5]: 3 µM

CCO/N=C(\C)c1ccccc1NS(=O)(=O)C(F)(F)F
Activity [1]: 92% | Activity [4]: 90% | LD99 [5]: >16 µM

CC1(C)C(C=C(Cl)Cl)C1C(=O)OCc1cccc(Oc2ccccc2)c1 (stereo unspecified)
LD50 [2]: 0.14 µg

C/C(=N\Oc1cccc(Cl)c1)c1cc(Cl)ccc1NS(=O)(=O)C(F)(F)F
Activity [1]: 100% | Activity [4]: 47% | LD99 [5]: 3.8 µM

CCO/N=C(\C)c1cc(Br)ccc1NS(=O)(=O)C(F)(F)F
Activity [1]: 100% | LD50 [2]: 1.2 µg | LC50 [3]: 11 ng/cm2 | Activity [4]: 100% | LD99 [5]: >13 µM

C=CCO/N=C(\CC)c1cc(Cl)ccc1NS(=O)(=O)C(F)(F)F
Activity [1]: 100% | LD50 [2]: 0.67 µg | LC50 [3]: 21 ng/cm2 | Activity [4]: 100% | LD99 [5]: 32 µM

C/C(=N\Oc1ccc(F)cc1)c1cc(Cl)ccc1NS(=O)(=O)C(F)(F)F
Activity [1]: 100% | LD50 [2]: 1.3 µg | LC50 [3]: 10 ng/cm2 | Activity [4]: 100% | LD99 [5]: 4.6 µM

CCO/N=C(\C)c1ccc(F)cc1NS(=O)(=O)C(F)(F)F
Activity [1]: 100% | Activity [4]: 8% | LD99 [5]: >15 µM

CC/C(=N\Oc1ccc(Cl)c(Cl)c1)c1cc(Cl)ccc1NS(=O)(=O)C(F)(F)F
Activity [1]: 99% | LC50 [3]: 6 ng/cm2 | LD99 [5]: 1.9 µM

CC/C(=N\OC1CCCC1)c1cc(Cl)ccc1NS(=O)(=O)C(F)(F)F
Activity [1]: 100% | LD50 [2]: 1.5 µg | LC50 [3]: 21 ng/cm2 | Activity [4]: 100% | LD99 [5]: 25 µM

CC/C(=N\Oc1ccc(Cl)cc1)c1cc(Cl)ccc1NS(=O)(=O)C(F)(F)F
Activity [1]: 100% | LC50 [3]: 51 ng/cm2 | Activity [4]: 95% | LD99 [5]: 1 µM

COCCO/N=C(\C)c1cc(Cl)ccc1NS(=O)(=O)C(F)(F)F
Activity [1]: 100% | LD50 [2]: 0.71 µg | LC50 [3]: 12 ng/cm2 | Activity [4]: 100%

CC/C(=N\OC(C)(C)C)c1cc(Cl)ccc1NS(=O)(=O)C(F)(F)F
Activity [1]: 100% | LD50 [2]: 1.5 µg | LC50 [3]: 43 ng/cm2 | Activity [4]: 90%

C/C(=N\OCc1ccc(C(F)(F)F)cc1C(F)(F)F)c1cc(Cl)ccc1NS(=O)(=O)C(F)(F)F
LD99 [8]: 0.53 µM | Activity [6]: 2% | LD99 [9]: 0.53 µM | LD99 [10]: 2.2 µM | LD99 [5]: 0.22 µM | LD99 [11]: 1.1 µM

C/C(=N\OCC1CCCC1)c1cc(Cl)ccc1NS(=O)(=O)C(F)(F)F
Activity [1]: 97% | LD50 [2]: 2.2 µg | LC50 [3]: 18 ng/cm2 | Activity [4]: 100% | LD99 [5]: 7.5 µM

CCC/C(=N\OCc1ccc(C(F)(F)F)cc1)c1cc(Cl)ccc1NS(=O)(=O)C(F)(F)F
Activity [6]: 36% | LD99 [5]: 3.2 µM

C/C(=N\Oc1ccccc1)c1cc(Cl)ccc1NS(=O)(=O)C(F)(F)F
Activity [6]: 6% | LD99 [5]: 14 µM

CC/C(=N\OCc1ccc(C(F)(F)F)cc1)c1cc(Cl)ccc1NS(=O)(=O)C(F)(F)F
Activity [1]: 98% | LD50 [2]: 2.7 µg | LC50 [3]: 17 ng/cm2 | Activity [4]: 90% | LD99 [5]: 0.84 µM

CC/C(=N\OCc1ccc(Cl)cc1)c1cc(Cl)ccc1NS(=O)(=O)C(F)(F)F
Activity [1]: 100% | LD50 [2]: 2.5 µg | LC50 [3]: 12 ng/cm2 | Activity [4]: 83% | LD99 [5]: 1.7 µM

CC/C(=N\OC)c1cc(Cl)ccc1NS(=O)(=O)C(F)(F)F
Activity [1]: 100% | LD50 [2]: 0.89 µg | LC50 [3]: 15 ng/cm2 | Activity [4]: 95% | LD99 [5]: 16 µM

CC/C(=N\OCC1CCCCC1)c1ccc(C(F)(F)F)cc1NS(=O)(=O)C(F)(F)F
Activity [1]: 97% | Activity [4]: 17%

CC/C(=N\OCc1ccc(C(F)(F)F)cc1C(F)(F)F)c1cc(Cl)ccc1NS(=O)(=O)C(F)(F)F
LC50 [3]: 19 ng/cm2 | Activity [4]: 88% | Activity [6]: 100% | LD99 [5]: 0.56 µM

C/C(=N\OC1CCCCC1)c1cc(Cl)ccc1NS(=O)(=O)C(F)(F)F
Activity [1]: 100% | Activity [4]: 100%

C#CCO/N=C(\CC)c1cc(Cl)ccc1NS(=O)(=O)C(F)(F)F
Activity [1]: 100% | LD50 [2]: 0.86 µg | LC50 [3]: 27 ng/cm2 | Activity [4]: 100% | LD99 [5]: 20 µM

CC/C(=N\OCc1ccc(Cl)cc1Cl)c1cc(Cl)ccc1NS(=O)(=O)C(F)(F)F
Activity [6]: 94% | LD99 [5]: 0.84 µM

O=S(=O)(Nc1ccc(Cl)cc1/C=N/OCc1ccc(Cl)cc1Cl)C(F)(F)F
Activity [6]: 12% | LD99 [5]: 2 µM

CC/C(=N\OCC1CC1)c1cc(Cl)ccc1NS(=O)(=O)C(F)(F)F
Activity [1]: 100% | LD50 [2]: 1.2 µg | LC50 [3]: 8 ng/cm2 | Activity [4]: 100% | LD99 [5]: 36 µM

CO/N=C(\C)c1cc(Cl)ccc1NS(=O)(=O)C(F)(F)F
Activity [1]: 100% | Activity [4]: 93%

CCC/C(=N\OCc1ccc(C(F)(F)F)cc1C(F)(F)F)c1cc(Cl)ccc1NS(=O)(=O)C(F)(F)F
Activity [6]: 79% | LD99 [5]: 2.5 µM

CC(C)/C(=N\Oc1ccc(F)cc1)c1cc(Cl)ccc1NS(=O)(=O)C(F)(F)F
Activity [1]: 100% | Activity [4]: 42%

C/C(=N\OC(C)(C)C)c1cc(Cl)ccc1NS(=O)(=O)C(F)(F)F
Activity [1]: 100% | LD50 [2]: 1.4 µg | LC50 [3]: 41 ng/cm2 | Activity [4]: 92% | LD99 [5]: 16 µM

CC/C(=N\OCc1ccc(Br)cc1)c1cc(Cl)ccc1NS(=O)(=O)C(F)(F)F
Activity [1]: 78% | Activity [4]: 58% | LD99 [5]: 1.8 µM
